The source of these data is PubChem BioAssay AID449762 (Southern Research Specialized Biocontainment Screening …, 2010).

Structures are written as SMILES. Inconclusive results are not listed. Bounds are passed on as bounds.

In this experiment the test system is M. tuberculosis H37Rv growth inhibition, 7H9 media. The experiment in a line: M. tuberculosis growth inhibition, HTS (AID 449762).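 On all read-outs here: bacterial growth assessed after seven days of incubation.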 The conditions noted are these: for IC90: measured here: IC90 growth inhibition.

What is called IC50 is the concentration that gives 50% inhibition. The IC90 is the point of the concentration-response curve where the effect stands at 90%. Take `O=[N+]([O-])c1ccc(Sc2cc[n+]([O-])c3ccccc23)c([N+](=O)[O-])c1`: the IC50 was 16.1 µM and the IC90 worked out at 24.3 µM.
`O=C(CCc1c[nH]c2ccccc12)N1CCN(S(=O)(=O)c2ccccc2)CC1`: the half-inhibitory concentration (IC50) is 94.3 µM and the 90% effect concentration (IC90) was greater than 100 µM.
Regarding `O=C(O)Cc1c[nH]c2ccc(O)cc12`, the concentration for an effect of 90% (IC90) was greater than 100 µM.
Turning to `Cc1nn(-c2ccccc2)c(Cl)c1/C=C/C(=O)c1ccccc1`, the 50% inhibitory concentration (IC50) is 49.1 µM and the IC90 is 56.7 µM.
Consider `COC(=O)CCn1c(C)cc(C(=O)COc2ccccc2C(N)=O)c1C`, for which the IC50 is 10.2 µM and the IC90 was 15.8 µM.
For `Cc1cc(C)c2c(CN3CCN(Cc4ccccc4)CC3)cc(=O)oc2c1C`, the half-maximal inhibitory concentration (IC50) was 49.1 µM and the 90% effect concentration (IC90) turned out to be 54.6 µM.
Regarding `Cc1ccc(C(=O)n2c(N)nc3ccccc32)cc1`, the IC50 is 43.8 µM and the concentration for an effect of 90% (IC90) is greater than 100 µM.
In the case of `Cc1cc(C)c(C)c(N=Nc2nc3ccccc3n2C)c1C`, the concentration for half-maximal inhibition (IC50) is 6.16 µM and the IC90 turned out to be 6.93 µM.
The matching figures for `COC(=O)c1c(NC(=O)CC2SC(N)=NC2=O)sc2c1CCC(C(C)(C)C)C2` (stereo not drawn): 34.4 µM and 51.3 µM.
The matching figures for `O=C1CC(=C(c2ccccc2)c2ccccc2)C(=O)N1CCCCN1CCN(c2ccccc2)CC1`: 22.8 µM and 26 µM.
With `O=C(Nc1ccc(-n2cccc2)cc1)C1CC1`, the IC50 is 1.84 µM and the 90% effect concentration (IC90) is greater than 100 µM.
On to `OC(CN1CCN(c2ccccn2)CC1)Cn1c2ccccc2c2ccccc21` (stereo not drawn), for which the IC50 was 36.1 µM and the IC90 stood at 51.7 µM.
In the case of `C=C(C)C1Cc2c(C)nn(-c3nc(C)cc(C)n3)c2C1` (stereo not drawn), the half-maximal inhibitory concentration (IC50) is 2.72 µM and the concentration for an effect of 90% (IC90) was found to be 6.74 µM.
In the case of `CC(C(Sc1ccccc1N)c1ccccc1)[N+](=O)[O-]` (stereo not drawn), the IC50 is 19.4 µM and the IC90 was greater than 100 µM.
The matching figures for `CCc1noc(C)c1C(=O)Nc1nc(-c2ccc(F)cc2)c(C)s1`: 8.8 µM and 36.9 µM.
For `OCC(O)/C=N/Nc1nc(Nc2ccccc2)nc(Nc2ccccc2)n1` (stereo not drawn), the IC50 is 9.56 µM and the IC90 was determined as 12.5 µM.
The matching figures for `Cc1cc(C)nc(Sc2ncnc(N)c2[N+](=O)[O-])n1`: 7.98 µM and 20.7 µM.
On the same counts, the results for `Cc1cc(O)c2c(c1)C(=O)c1cc(O)cc(O)c1C2=O` are 91.5 µM and greater than 100 µM.
On the same counts, the results for `Cc1cc(=O)oc2c(C)c(OCC(=O)N3CCN(C(=O)C4COc5ccccc5O4)CC3)ccc12` (stereo not drawn) are 61.5 µM and 86.1 µM.
On to `CC1(C)C2CCC1(C)C(OCC[N+](C)(C)CC(=O)OC1CCCCC1)C2` (stereo not drawn), for which the concentration for half-maximal inhibition (IC50) was 10.9 µM and the IC90 was found to be 12.2 µM.
The matching figures for `Cc1cc2c(cc1C)CSC(c1c(O)ccc3ccccc13)SC2`: 45.3 µM and greater than 100 µM.
On to `CC1CC(C)(C)Nc2ccc(OC(=O)c3ccco3)cc21` (stereo not drawn), for which the half-inhibitory concentration (IC50) was 6.31 µM and the 90% effect concentration (IC90) worked out at 16.4 µM.
On the same counts, the results for `O=C(c1ccccc1)c1nn(-c2ccc(Cl)cc2)c(=O)cc1C(F)(F)F` are 12 µM and 19.6 µM.
The matching figures for `CO/N=C(\Cn1ncc(N2CCCC2)c(Cl)c1=O)c1ccc(Cl)cc1`: 16.9 µM and 27.5 µM.
`C(=C\c1ccccc1)/C=N/Nc1nc2ccccc2s1` came in with an IC90 greater than 100 µM.
Regarding `COC(=O)c1ccc(-n2cnc3ccccc32)nc1`, the IC50 was 13.9 µM and the IC90 was determined as 45.1 µM.
As for `O=S(=O)(c1ccc(Cl)cc1)c1snnc1-c1ccccc1`, the IC50 is 6.27 µM and the IC90 was found to be 51.8 µM.
The matching figures for `CCCc1cc(=O)n2[nH]c(C)c(-c3ccc(Cl)cc3)c2n1`: 6.8 µM and 18.1 µM.
Regarding `O=C(/C=C/c1c(F)cccc1Cl)c1ccc(F)cc1`, the IC50 is 23.8 µM and the concentration for an effect of 90% (IC90) worked out at 34.4 µM.
`C=C1C(=O)[C@@]23[C@H](O)C[C@@H]4C(C)(C)CC[C@H](O)[C@@]4(C)[C@@H]2CC[C@@H]1[C@H]3O`: the half-maximal inhibitory concentration (IC50) is 3.04 µM and the IC90 came to 4.05 µM.
The matching figures for `CCOC(=O)N1CCN(Cc2cc(Cl)c3cccnc3c2O)CC1`: 11 µM and 21 µM.
With `Cc1ccc(C(C(=O)NCC2CCCO2)N(Cc2ccccc2)C(=O)c2ccc(-c3ccccc3)[nH]2)o1` (stereo not drawn), the half-maximal inhibitory concentration (IC50) is 23.3 µM and the IC90 was found to be 35.6 µM.
The matching figures for `CS(=O)(=O)c1ncc(Cl)c(C(=O)Nc2ccc(OC(F)F)cc2)n1`: 5.68 µM and 15.5 µM.
The matching figures for `C=CCOc1ccccc1CN(C(=O)CCl)c1ccc2c(c1)OCO2`: 0.92 µM and 2.58 µM.
On the same counts, the results for `Cc1cc(C(=O)N[C@H](c2ccccc2)[C@@]2(C)C[C@@H]2[C@@H](C)C(=O)Nc2ccc3ccccc3c2)n(C)n1` are 24.4 µM and 27.6 µM.
As to `CC(C)C1N=C(c2ccc3c(c2)OCO3)CC(c2ccccc2O)N1` (stereo not drawn), the IC50 is 20.8 µM and the IC90 worked out at 30.4 µM.
On the same counts, the results for `COc1ccc(N=c2cc(-c3ccc(O)cc3)oc3ccccc23)cc1` are 22.3 µM and 25.8 µM.
On the same counts, the results for `O=c1cc(CCl)nc(Cc2c(Cl)cccc2Cl)[nH]1` are 0.51 µM and 68.7 µM.
The matching figures for `CN(CCO)c1cc(Sc2nc3ccccc3s2)c2nonc2c1[N+](=O)[O-]`: 27 µM and greater than 100 µM.
With `C(=N\NC1=Nc2cccc3cccc1c23)/c1cccnc1`, the IC50 was 13.4 µM and the 90% effect concentration (IC90) is greater than 100 µM.
Take `CC(Oc1cc2oc(=O)c3c(c2cc1Cl)CCCC3)C(=O)NCc1ccccn1` (stereo not drawn): the half-inhibitory concentration (IC50) is 7.47 µM and the concentration for an effect of 90% (IC90) is greater than 100 µM.
The matching figures for `CC1=NN(c2ccccc2)C(=O)/C1=C\c1c(C)[nH]n(-c2ccccc2)c1=O`: 18.2 µM and 46 µM.
Regarding `Cc1cc(C)cc(NC(=O)CCc2ccc(C)o2)c1`, the IC50 is 43 µM and the concentration for an effect of 90% (IC90) is greater than 100 µM.
`COc1ccc(-c2csc3nc(-c4ccccc4OC)oc(=O)c23)cc1`: the 50% inhibitory concentration (IC50) is less than 0.2 µM and the 90% effect concentration (IC90) came out at 24.1 µM.
For the compound `CC(/C=C/c1ccccc1)=N\NC(N)=S`, the 50% inhibitory concentration (IC50) was 3.84 µM and the concentration for an effect of 90% (IC90) was 9.07 µM.
The matching figures for `C/C(=N\Nc1ccc(Cl)c(Cl)c1)c1ccc(-n2ccnc2)cc1`: 65.8 µM and 86.4 µM.
Turning to `C/C(=C\C(=S)Nc1ccccc1)Nc1ccc2ccccc2c1`, the half-maximal inhibitory concentration (IC50) is 40.6 µM and the IC90 was 52.9 µM.
On the same counts, the results for `CC1(C)OC(=O)C(=Cc2ccc[nH]2)C(=O)O1` are less than 0.2 µM and 24.1 µM.
The matching figures for `O=C(Cc1ccc([N+](=O)[O-])cc1)Nc1cc(C(F)(F)F)cc(C(F)(F)F)c1`: 2.74 µM and 3.12 µM.
As to `N=c1oc2cc(O)ccc2cc1C(=O)Nc1ccc(Br)cc1`, the IC50 is 0.86 µM and the IC90 came to 4.2 µM.
Consider `O=C(CCl)N1CCN2C(=O)c3ccccc3C12c1ccc(Cl)cc1` (stereo not drawn), for which the IC50 was 5.42 µM and the 90% effect concentration (IC90) worked out at 7.84 µM.
Take `CC(=O)c1c(C)n(C)c2ccc(OC(=O)c3ccc([N+](=O)[O-])cc3)cc12`: the IC50 was 11.2 µM and the IC90 is greater than 100 µM.
The matching figures for `CC(=O)/C(=C\Nc1ccc(OCc2ccccc2)cc1)c1ccccc1`: 2.28 µM and 12.1 µM.
Regarding `Cc1ccc(-n2c(C)cc(/C=N/NC(N)=S)c2C)cc1`, the 50% inhibitory concentration (IC50) is 12.7 µM and the IC90 was 24.6 µM.
The matching figures for `CCCCCCCCCCCCCCCC[N+](C)(C)CC`: 30.3 µM and 43 µM.
On the same counts, the results for `CCc1cc(C(=O)Nc2nc(-c3ccccn3)cs2)sc1C` are 1.26 µM and 15.3 µM.
The matching figures for `O=C(CSc1nc(Nc2ccccc2)nc(N2CCOCC2)n1)Nc1cc(Cl)ccc1O`: 44 µM and greater than 50 µM.
In the case of `C(C#CCCCCCCCCC[n+]1ccccc1)#CCCCCCCCCC[n+]1ccccc1`, the IC50 was 2.8 µM and the IC90 came out at 4.43 µM.
On the same counts, the results for `O=c1c(-c2cnn(-c3ccccc3)c2)coc2cc(O)ccc12` are 12.1 µM and greater than 100 µM.
For `O=C(N/N=C/c1ccc(Br)s1)c1cccs1`, the concentration for half-maximal inhibition (IC50) was 24.3 µM and the IC90 was greater than 100 µM.
For `Cc1ccc(OC(=O)CCN2C(=O)c3ccccc3C2=O)cc1C`, the half-inhibitory concentration (IC50) is 28.6 µM and the IC90 was greater than 100 µM.
On the same counts, the results for `O=C(c1ccco1)N1CCN(C(=O)C2CC(c3ccc(Cl)c(Cl)c3)=NO2)CC1` (stereo not drawn) are 3.88 µM and 11 µM.
The matching figures for `Nc1c(C(=O)OCC2CCCO2)c2nc3ccccc3nc2n1C1CCCC1` (stereo not drawn): 54.5 µM and greater than 100 µM.
Take `CCCC(=O)Nc1ccc(C(=O)/C=C/c2ccc(SC)cc2)cc1`: the IC50 is 22.9 µM and the 90% effect concentration (IC90) turned out to be 37.1 µM.
Take `Nc1nc2ccccc2n1CCOc1ccccc1Cl`: the IC50 is 12.1 µM and the 90% effect concentration (IC90) is 13.3 µM.
On the same counts, the results for `Cc1ccc(NS(=O)(=O)c2ccc(NC(=O)CN(c3cc([N+](=O)[O-])ccc3C)S(C)(=O)=O)cc2)c(C)c1` are 41.3 µM and greater than 100 µM.
On to `Cc1cc(/C=C(/C#N)c2cccc(F)c2)c(C)n1-c1cccnc1`, for which the 90% effect concentration (IC90) was greater than 100 µM.
For `O=C(/C=C/c1ccc(O)cc1)c1ccc(NC2=C(N3CCCCC3)C(=O)c3ccccc3C2=O)cc1`, the IC50 was 12 µM and the IC90 was determined as 13.6 µM.
Consider `COc1ccc(NC(=O)c2oc3ccc(S(=O)(=O)N4CCOCC4)cc3c2C)cc1`, for which the IC50 is 0.68 µM and the concentration for an effect of 90% (IC90) is 7.38 µM.
The matching figures for `CCOC(=O)c1ccc(-c2c(-c3ccc4c(c3)OCO4)noc2C)cc1F`: 33.3 µM and 54 µM.
As to `CN(C)CCOc1ccc(-c2c(-c3ccsc3)sc3ccccc23)cc1`, the half-inhibitory concentration (IC50) is 13.2 µM and the IC90 came to 15.5 µM.
On the same counts, the results for `COc1ccc(-c2cc(C3CCN(C(=O)OC(C)(C)C)CC3)[nH]n2)cc1` are 17 µM and 30.6 µM.
With `CCOC(=O)C1=NOC(CNc2ncc(C(F)(F)F)cc2Cl)C1` (stereo not drawn), the half-inhibitory concentration (IC50) is 7.03 µM and the 90% effect concentration (IC90) was 14.1 µM.
